Measurements as given in ChEMBL document CHEMBL5528088, “Design and Synthesis of Cyclolipopeptide Mimics of Dysoxylactam A and Evaluation of the Reversing Potencies against P-Glycoprotein-Mediated Multidrug Resistance” (J Med Chem, 2024).

Tests used:
Format in all cases: functional
[1] = test system: KBv200; assay: Reversal fold, ratio of VNR IC50 to VNR IC50 in presence of test compound for human KBv200 cells incubated for 72 hrs by SRB assay
[2] = test system: KBv200; assay: Inhibition of cell proliferation in human KBv200 cells assessed as inhibition of VNR at 10 uM incubated for 72 hrs in presence of VNR by SRB assay relative to control
[3] = test system: KBv200; assay: Cytotoxicity against human KBv200 cells at 10 uM incubated for 72 hrs by SRB assay relative to control

SMILES | Ratio IC50 [1] | inhibition at 10 µM [2] [%] | Activity [3] [%]
CC(C)[C@@H]1NC(=O)CCCCCCCCCCC(=O)N[C@@H](Cc2ccccc2)COC1=O | 85 | 97.6 | 5
CC(C)[C@@H]1NC(=O)CCCCCCCCCC(=O)N[C@@H](Cc2ccccc2)COC1=O | 55.1 | 93.4 | 1.8
CC(C)C[C@H]1COC(=O)[C@H](C(C)C)NC(=O)CCCCCCCC(=O)N1 |  | 48.9 | 
CC[C@H](C)[C@@H]1NC(=O)[C@H](C(C)C)NC(=O)CCCCCCC(=O)Nc2cccc(c2)COC1=O | 10.2 | 83.5 | 4.4
CC[C@H](C)[C@@H]1NC(=O)[C@H](C(C)C)NC(=O)CCCCCCCC(=O)Nc2ccccc2COC1=O | 7.3 | 90.9 | 19.8
CC(C)[C@@H]1NC(=O)CCCCCCCC(=O)NC(C)(C)CCOC1=O |  | 23.1 | 
CC[C@H](C)[C@@H]1NC(=O)[C@H](C(C)C)NC(=O)CCCCCCCC(=O)NCCOC1=O |  | 51.1 | 
CC(C)[C@@H]1NC(=O)CCCCCCCC(=O)N[C@@H](Cc2ccccc2)COC(=O)[C@H](Cc2ccccc2)NC1=O | 2.7 | 88.9 | 0
CC(C)[C@@H]1NC(=O)CCCCCCCC(=O)N[C@@H](Cc2ccccc2)COC1=O | 26.1 | 80.6 | 0
CC(C)[C@@H]1NC(=O)CCOCCOCCOCCC(=O)N[C@@H](Cc2ccccc2)COC1=O |  | 0.3 | 
CC(C)[C@@H]1NC(=O)CCCCCCCC(=O)N[C@@H](c2ccccc2)[C@@H](c2ccccc2)OC1=O |  | 14.1 | 
CC(C)[C@@H]1NC(=O)CCCCCCCC(=O)N[C@@H](Cc2ccccc2)COC(=O)[C@H](C)NC1=O |  | 55.5 | 
CC[C@H](C)[C@@H]1NC(=O)[C@H](C(C)C)NC(=O)CCCCCCCC(=O)N[C@@H](C)COC1=O |  | 49 | 
CC(C)[C@@H]1NC(=O)CCCCCCCCCCCC(=O)N[C@H](Cc2ccccc2)COC1=O | 51.3 | 75.4 | 17
CC[C@H](C)[C@@H]1NC(=O)[C@H](C(C)C)NC(=O)CCCCCCCC(=O)NCc2cccc(c2)OC1=O |  | 6.4 | 
CC(C)[C@@H]1NC(=O)CCCCCCCC(=O)N[C@H](c2ccccc2)CCOC1=O |  | 30.1 | 
CC[C@H](C)[C@@H]1NC(=O)[C@H](C(C)C)NC(=O)CCCCCCCC(=O)N[C@@H](C(C)C)COC1=O | 1.9 | 63.6 | 18.6
CC[C@H](C)[C@@H]1NC(=O)[C@H](C(C)C)NC(=O)CCCCCCCC(=O)N[C@@H](Cc2ccccc2)COC1=O | 20.8 | 91.3 | 21.8
CC(C)[C@@H]1NC(=O)CCCCCCCCC(=O)N[C@@H](Cc2ccccc2)COC1=O | 31.7 | 85.4 | 2.2
CC(C)[C@@H]1NC(=O)CCCCCCCC(=O)N[C@@H](Cc2ccccc2)COC(=O)CCNC1=O |  | 12 | 
CC(C)[C@@H]1NC(=O)CCCCCCCC(=O)NCCCCCCOC1=O |  | 21.1 | 
CC[C@H](C)[C@@H]1NC(=O)[C@H](C(C)C)NC(=O)CCCCCCCC(=O)NCC(F)(F)COC1=O | 2.3 | 73.4 | 10.3
CC(C)[C@@H]1NC(=O)CCCCCCCC(=O)NCC(C)(C)COC1=O |  | 38.8 | 
CC(C)[C@@H]1NC(=O)CCCCCCCC(=O)Nc2cccc(c2)OC1=O |  | 12.8 | 
CC(C)[C@@H]1NC(=O)CCCCCCC(=O)N[C@@H](Cc2ccccc2)COC1=O |  | 9.3 | 
CSCC[C@H]1COC(=O)[C@H](C(C)C)NC(=O)CCCCCCCC(=O)N1 |  | 34 | 
CC(C)[C@H]1NC(=O)CCCCCCCCCCCC(=O)N[C@H](Cc2ccccc2)COC1=O | 114.5 | 91.5 | 15.8

SMILES | Ratio IC50 [1] | inhibition at 10 µM [2] [%] | Activity [3] [%]
CC(C)[C@@H]1NC(=O)CCCCCCCC(=O)N[C@@H](C(C)C)COC1=O |  | 34.4 | 
CC[C@H](C)[C@@H]1NC(=O)[C@H](C(C)C)NC(=O)CCCCCC(=O)N[C@@H](Cc2ccccc2)COC1=O |  | 25.7 | 
CC[C@H](C)[C@@H]1NC(=O)[C@H](C(C)C)NC(=O)CCCCCCCC(=O)NCCCCOC1=O |  | 54 | 
CC(C)[C@@H]1NC(=O)CCCCCCCC(=O)Nc2ccccc2COC1=O |  | 29.7 | 
CC[C@H](C)[C@@H]1NC(=O)[C@H](C(C)C)NC(=O)CCCCCCCCC(=O)Nc2cccc(c2)COC1=O | 7.3 | 77.6 | 10.9
CC(C)[C@@H]1NC(=O)CCCCCCCC(=O)Nc2cccc(c2)COC1=O |  | 13.1 | 
CC(C)[C@@H]1NC(=O)CCCCCCCC(=O)NCCOC1=O |  | 9.5 | 
CC[C@H](C)[C@@H]1NC(=O)[C@H](C(C)C)NC(=O)CCCCCCCC(=O)Nc2cc(F)cc(c2)COC1=O | 19.3 | 90.7 | 4.6
CC(C)[C@@H]1NC(=O)CCCCCCCC(=O)N[C@@H](c2ccccc2)COC1=O |  | 50.2 | 
CC(C)[C@@H]1NC(=O)CCCCCCCC(=O)N[C@@H](Cc2ccccc2)COC(=O)Cc2cccc(c2)NC1=O | 6.5 | 81.6 | 0
CC(C)[C@@H]1NC(=O)CCCCCCCC(=O)NCCCCCOC1=O |  | 26.6 | 
CC(C)[C@@H]1NC(=O)CCCCCCCC(=O)N[C@@H](Cc2ccccc2)COC(=O)CCCNC1=O |  | 26.8 | 
CC(C)[C@@H]1NC(=O)CCCCCCCC(=O)NCCCOC1=O |  | 15 | 
CC(C)C1NC(=O)CCCCCCCC(=O)N[C@@]23C[C@H]4C[C@@H](C2)C[C@](C4)(C3)OC1=O (some centres undefined) |  | 42.9 | 
CC(C)[C@@H]1NC(=O)CCCCCCCC(=O)Nc2ccccc2OC1=O |  | 14.5 | 
CC(C)[C@@H]1NC(=O)CCCCCCCC(=O)N[C@@H](Cc2ccccc2)COC(=O)Cc2ccc(cc2)NC1=O |  | 35.9 | 
CC(C)[C@@H]1NC(=O)CCCCCC(=O)N[C@@H](Cc2ccccc2)COC1=O |  | 42.6 | 
CC[C@H](C)[C@@H]1NC(=O)[C@H](C(C)C)NC(=O)CCCCCCC(=O)N[C@@H](Cc2ccccc2)COC1=O |  | 28.7 | 
CC[C@H](C)[C@H]1COC(=O)[C@H](C(C)C)NC(=O)CCCCCCCC(=O)N1 |  | 51.2 | 
CC(C)[C@@H]1NC(=O)CCCCCCCC(=O)N[C@@H](Cc2ccccc2)COC(=O)CNC1=O |  | 11 | 
CCC[C@H]1COC(=O)[C@H](C(C)C)NC(=O)CCCCCCCC(=O)N1 |  | 46.3 | 
CC(C)[C@@H]1NC(=O)CCCCCCCC(=O)N[C@@H](C)COC1=O |  | 20.7 | 
CC(C)[C@@H]1NC(=O)CCCCCCCC(=O)N[C@H]2[C@@H]3C[C@@H]4C[C@H]2C[C@@](C4)(C3)OC1=O |  | 14.1 | 
CC[C@H](C)[C@@H]1NC(=O)[C@H](C(C)C)NC(=O)CCCCCC(=O)Nc2cccc(c2)COC1=O |  | 14.5 | 
CC[C@H](C)[C@@H]1NC(=O)[C@H](C(C)C)NC(=O)CCCCCCCC(=O)NCCCOC1=O |  | 44.8 | 
CC(C)[C@@H]1NC(=O)CCCCCCCC(=O)N[C@@H](C(C)(C)C)COC1=O |  | 53.6 | 
CC(C)[C@@H]1NC(=O)CCCCCCCC(=O)NCCCCOC1=O |  | 15.7 | 
